Experimental data from patent publication US12256759B2, “Methods for the reduction of methane production in ruminants” (Loam Bio Pty Ltd, priority 2021, dated 2025).

Assays:
[1] = test system: Methanobrevibacter smithii; conditions: 100 ul chloroform, positive control
methane production = conditions: among antimethanogenic compounds found in A. taxiformis; cited from earlier work
[2] = biological target: T1, methyl-coenzyme M reductase (MCR) (Methanothermobacter marburgensis, UniProt P11558); conditions: prevents the final catalysis step of methanogenesis; cited from earlier work
T1 sequence (P11558 1-550): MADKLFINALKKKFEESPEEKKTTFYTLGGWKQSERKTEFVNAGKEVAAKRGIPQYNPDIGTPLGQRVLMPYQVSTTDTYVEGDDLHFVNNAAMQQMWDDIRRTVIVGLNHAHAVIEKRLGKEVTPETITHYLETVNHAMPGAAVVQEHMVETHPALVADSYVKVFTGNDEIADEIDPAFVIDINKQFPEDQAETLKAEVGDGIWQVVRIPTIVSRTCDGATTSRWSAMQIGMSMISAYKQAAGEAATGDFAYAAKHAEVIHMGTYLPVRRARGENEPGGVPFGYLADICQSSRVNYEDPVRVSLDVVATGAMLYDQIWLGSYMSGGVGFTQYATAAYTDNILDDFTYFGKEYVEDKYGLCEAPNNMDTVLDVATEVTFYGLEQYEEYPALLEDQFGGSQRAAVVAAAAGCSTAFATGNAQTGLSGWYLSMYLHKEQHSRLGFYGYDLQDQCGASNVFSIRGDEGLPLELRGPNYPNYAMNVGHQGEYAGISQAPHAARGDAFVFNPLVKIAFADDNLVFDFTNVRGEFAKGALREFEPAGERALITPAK
T1 sequence (P11560 1-443 partner): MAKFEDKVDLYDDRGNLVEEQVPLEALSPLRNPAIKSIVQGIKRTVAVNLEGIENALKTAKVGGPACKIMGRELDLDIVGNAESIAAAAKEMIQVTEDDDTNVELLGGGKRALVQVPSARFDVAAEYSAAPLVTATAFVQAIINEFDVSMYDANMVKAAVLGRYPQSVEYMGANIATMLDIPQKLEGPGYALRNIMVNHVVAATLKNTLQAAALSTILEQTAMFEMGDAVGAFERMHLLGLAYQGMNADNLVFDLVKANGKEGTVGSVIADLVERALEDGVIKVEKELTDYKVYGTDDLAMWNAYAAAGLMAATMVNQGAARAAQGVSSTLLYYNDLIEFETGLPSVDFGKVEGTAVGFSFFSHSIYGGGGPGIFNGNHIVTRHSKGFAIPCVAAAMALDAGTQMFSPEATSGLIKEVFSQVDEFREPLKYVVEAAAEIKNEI
T1 sequence (P11562 1-249 partner): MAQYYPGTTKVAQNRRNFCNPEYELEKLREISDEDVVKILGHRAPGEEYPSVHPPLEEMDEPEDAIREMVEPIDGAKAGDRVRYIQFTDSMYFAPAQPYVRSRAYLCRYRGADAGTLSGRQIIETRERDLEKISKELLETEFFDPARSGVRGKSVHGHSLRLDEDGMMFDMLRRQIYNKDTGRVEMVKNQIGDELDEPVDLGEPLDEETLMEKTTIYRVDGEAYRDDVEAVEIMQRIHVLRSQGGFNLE

Structure (SMILES): ClC(Cl)Cl [chloroform]
- inhibition of methane production [1]: dramatic inhibition in methane production

Structure (SMILES): ClC(Br)Br [dibromochloromethane]
- activity at inhibiting methane production (methane production): highest activity at inhibiting methane production

Structure (SMILES): BrC(Br)Br [bromoform]
- activity at inhibiting methane production (methane production): highest activity at inhibiting methane production
- mode of action on methyl-coenzyme M reductase (MCR) [2]: competitive inhibitor or analog
